The values below come from patent US20070202492A1, “Viral Assay” (University Of Warwick, priority 2004, published 2007).

Each structure is given as a SMILES string. In brackets after ≈: the same amount, converted by molar mass.

The test system of one data set is APV-luciferase. Type of data set: cell-based, avian pneumovirus (APV).
Another data set concerns BS-C-1 cells. In words: Cell viability, MTT assay. The data set is classed as cell-based. The text has this:
For the negative control, cells were killed with 1% w/v SDS.

The subject of data set [1] is RSV. Kind of data set: microbe, parasite or virus in culture. Type of data set: cell-based, human respiratory syncytial virus (RSV).
A further data set concerns APV. Kind of data set: microbe, parasite or virus in culture. Type of data set: cell-based, avian pneumovirus (APV).
Data set [2] relates to RSV. In words: Reduction in plaque number on BS-C-1 cells. The data set is classed as cell-based, human respiratory syncytial virus (RSV). Particulars: RSV on BS-C-1 cells; 30 μg/ml drug.
Data set [3] deals with RSV. Particulars: HeLa cells, Kawana 1987, Watanabe 1994; cited from earlier work.

For `COc1c(C)c2c(c(O)c1C/C=C(\C)CCC(=O)O)C(=O)OC2` [MPA, mycophenolic acid], in the data set with APV-luciferase (100 ng/ml, FIG. 3C), the “Antiviral activity against APV (luciferase reporter)” value was “has antiviral activity”. For the same compound, the “Toxicity to the cells” value with BS-C-1 cells (100 ng/ml, FIG. 3D) was “not toxic”.
Turning to `NC(=O)c1ncn([C@@H]2O[C@H](CO)[C@@H](O)[C@H]2O)n1` [ribavirin], the CAT expression result in the data set on RSV [1] (RSV, 50 μg/ml, FIG. 1) is given as “undetectable”. In addition, the “Effect on CAT expression” value is “obvious inhibitory effect” in the data set on RSV [1] (RSV, lowest concentration tested, 10 μg/ml, FIG. 1) and “obvious inhibitory effect” in the data set with APV (APV, lowest concentration tested, 10 μg/ml, FIG. 1). The EC50 in the data set with RSV [1] (human respiratory syncytial virus, BSC-1, read-out: EC50 (50% effective concentration)) was 4.2 µg/mL (≈ 17.2 µM); in the data set on APV (avian metapneumovirus, BSC-1, read-out: EC50 (50% effective concentration)), 9 µg/mL (≈ 36.9 µM). In addition, the EC90 in the data set on RSV [1] (human respiratory syncytial virus, BSC-1, read-out: EC90 (90% effective concentration)) was determined as 17.1 µg/mL (≈ 70 µM); in the data set on APV (avian metapneumovirus, BSC-1, read-out: EC90 (90% effective concentration)), 25.4 µg/mL (≈ 104 µM). Further, the “Inhibition of APV (luciferase reporter)” value in the data set with APV-luciferase (higher concentrations of ribavirin, FIG. 3A) was “strongly inhibited”. The “Toxicity to the cells” value in the data set on BS-C-1 cells (concentrations used in the experiment, FIG. 3B) is reported as “not toxic”. The “Reduction in titre (plaque number)” value with RSV [2] was 100 fold. Also, the “EC50, published values” with RSV [3] was 3.1 to 6.2 µg/mL.
